Test results published in patent US12636250B2, “Microneedle array patches (MAPs), systems, and methods for manufacturing and using same” (Terrestrial Bio, Inc., priority 2024, dated 2026).
“Also recorded” adds a separate entry of the source.

Legend:
[1] = Mold dissection for tip length and shell length (RTM-209); type: physicochemical; conditions: comparison between GLP-1 tip formulations
Protocol: Mold Dissection for Tip Length (RTM-209): The mold dissection method uses magnified images of sectioned molds to obtain measurements and morphology of the dried tips in the molds. After tip printing and drying, a mold is cross-sectioned with a razor blade in between rows of needles. The dried tips are imaged within the needle cavities using a microscope. The tip overall length and shell length are measured by image processing. The image scale is calibrated using a stage micrometer, and lengths in micrometers are calculated from the lengths measured in pixels. The shell length as a portion of overall length is an indication of consolidation. Minimal shell length, corresponding to maximum consolidation, is preferred.

[2] = Microneedle mechanical strength, Instron compression (crush) test (TM-404); type: physicochemical; conditions: for Tip strength (comparison in words): comparison between GLP-1 tip formulations

Row | SMILES | Tip length / shell length / Tip consolidation (comparison in words) [1] | Tip strength (comparison in words) [2] | strength per needle ([2]; GLP-086, higher (3%) concentration of Proline vs feasibility (control) formulation)
1 | [Cl-].[Cl-].[Mg+2] [MgCl2] | also improved Tip consolidation | – | –
2 | [Cl-].[Na+] [NaCl] | led to better consolidation of the Tips; also recorded: significantly reduced the shell length and improved the % consolidation of the Tip | comparable | –
3 | O=C(O)[C@@H]1CCCN1 [Proline] | did improve Tip consolidation | significantly improves the mechanical strength of GLP-1 containing needles | > 0.6 N/needle
4 | Cl.NC(CO)(CO)CO [Tris-HCl] | comparable to MOPS in terms of Tip length and strength | comparable to MOPS in terms of Tip length and strength | –
